Earlier results as cited in US20100092397A1, “Method For Treatment of COPD and Other Pulmonary Diseases” (Activaero GmbH, priority 2008, published 2010).

Columns and labels:
[1] = system: subjects with moderate-severe COPD; conditions: nebulized ADC4022 12.5 mg twice daily plus budesonide 1 mg twice daily for 4 weeks, versus placebo plus budesonide
[2] = systemic (oral or i.v.) administration; levels above this range result in side effects

| SMILES | lung function [1] | recommended effective range, plasma level [2] [mg/L] |
| --- | --- | --- |
| Cn1c(=O)c2[nH]cnc2n(C)c1=O [ADC4022] | stable |  |
| Cn1c(=O)c2[nH]cnc2n(C)c1=O [Theophylline, theophylline] |  | 10 to 20 |
